Measurements: publication PMC10028790 (bioRxiv, 2023)
“And” between values parts separate entries of the source, which are not always exact repeats. Equal entries are not always repeated. “Also recorded” adds a separate entry of the source. Where two headings read alike, the source gives them in different places.

How the values were obtained:
GRABeCB2.0 [1] = biological target: T1, GRABeCB2.0 (Homo sapiens, UniProt P21554); assay: cell-based; settings: for Effect on GRABeCB2.0 fluorescent signal: products of 2-AG hydrolysis
GRABeCB2.0 [2] = biological target: T1, GRABeCB2.0; assay: cell-based; assay type: cell-based
CB1R = settings: cited from earlier work
[3] = adult mice, intraperitoneal 5 mg/kg; ref 44;45; cited from earlier work
[4] = read-out: EC50 for activation of CB1Rs
[5] = applied at a concentration that approaches the EC50
[6] = concentration-dependent responses
[7] = read-out: EC50, potency at CB1R

Which “Effect on GRABeCB2.0 fluorescent signal” value (GRABeCB2.0 [1]) does the source give for CCCCC/C=C\C/C=C\C/C=C\C/C=C\CCCC(=O)O [arachidonic acid] here?
The value was “did not influence”.

With CCCCC/C=C\C/C=C\C/C=C\C/C=C\CCCC(=O)OC(CO)CO [2-AG, 2-arachidonoylglycerol] as the compound, how does the “Antagonism response: t (decay following SR1 treatment)” value (GRABeCB2.0 [2]) read?
Its value is 42.7 s.

What about the “Decay of agonist response antagonized by SR1” value (GRABeCB2.0 [2]) of the same compound?
Its value is 43 s.

What about the “Maximal response: peak” value (GRABeCB2.0 [2]; 2-AG 1 μM, AEA 10 μM, CP 1 μM) of the same compound?
Its value is 2.5 DF/F0.

And the “Overall response (area under the curve)” value (GRABeCB2.0 [2]; 2-AG 1 μM, AEA 10 μM, CP 1 μM)?
The value was 649.

What about the Emax (GRABeCB2.0 [2]; HEK293, read-out: Peak response greater than the CP maximal response) of the same compound?
The Emax was 47 to 58%.

What about the “Initial response: slope” value (GRABeCB2.0 [2]; slope of fluorescent signal increase within first 20 sec after start of agonist, 2-AG 1 μM, AEA 10 μM, CP 1 μM) of the same compound?
Its value is 6.6 × 10^−2 DF/F0/sec.

And the “Antagonism of agonist response by SR1 100 nM” value (“Antagonism … by SR1 100 nM” for short) (GRABeCB2.0 [1])?
The value was “partial antagonized”.

And the “Effect of SR1 pre-treatment on agonist-stimulated GRABeCB2.0 activation” value (“Effect of SR1 pre-treatment” for short) (GRABeCB2.0 [1])?
Its value is “significantly reduced”.

What about the “GRABeCB2.0 fluorescent signal at 0 sec over basal” value (GRABeCB2.0 [1]; 2-AG 10 nM) of the same compound?
The value was 0.19 ΔF/F0.

What about the Initial inflection point (GRABeCB2.0 [1]; 2-AG 10 nM) of the same compound?
Its Initial inflection point is 0.66 min.

What about the “GRABeCB2.0 fluorescent signal at 0 sec over basal” value (GRABeCB2.0 [1]; 2-AG 100 nM) of the same compound?
Its value is 0.96 ΔF/F0.

What about the Initial inflection point (GRABeCB2.0 [1]; 2-AG 100 nM) of the same compound?
The Initial inflection point was 0.33 min.

And the Inflection point (GRABeCB2.0 [1]; 2-AG 3 μM (strongest response))?
The Inflection point was “≈ 0.66 min”.

And the “Kinetics of fluorescent signal increase” value (GRABeCB2.0 [1]; [5])?
The value was “rapid increases in fluorescent signal that were followed by slow decays”.

Which “THC in mouse brain” value [3] does the source give for CCCCCc1cc(O)c2c(c1)OC(C)(C)[C@@H]1CCC(C)=C[C@@H]21 [Δ^9-THC, Δ^9-tetrahydrocannabinol] here?
The value was “≈ 10 ng/ml and 31.8 nM”.

Which “Effect on basal GRABeCB2.0 fluorescent signal” value (GRABeCB2.0 [1]; CBD 0.1 nM to 3 μM (legend: 100 pM-10 μM)) does the source give for C=C(C)[C@@H]1CCC(C)=C[C@H]1c1c(O)cc(CCCCC)cc1O [CBD, Cannabidiol] here?
Its value is “did not affect; also recorded: does not modulate; also recorded: did not significantly modulate”.

And the “Reduction of 2-AG-induced increase in GRABeCB2.0 fluorescent signal” value (GRABeCB2.0 [1]; at 1 μM)?
Its value is 26%.

For CCCCC/C=C\C/C=C\CCCCCCCC(=O)OC(CO)CO [2-LG, 2-linoleoylglycerol], which EC50 (CB1R; read-out: EC50, partial activation of CB1R, ref 11;12) is on record?
The EC50 was 16600 nM.

What about the EC50 (CB1R; read-out: EC50 to activate CB1R, discussion, no reference given) of the same compound?
The EC50 was ~25000 nM.

And the “Antagonism … by SR1 100 nM” value (GRABeCB2.0 [1])?
The value was “partial antagonized”.

What about the EC50 (GRABeCB2.0 [1]) of the same compound?
The EC50 was 1500 nM.

What about the “Effect of SR1 pre-treatment” value (GRABeCB2.0 [1]) of the same compound?
The value was “reduced”.

What about the “Kinetics of fluorescent signal increase” value (GRABeCB2.0 [1]; [5]) of the same compound?
The value was “rapid increases in fluorescent signal that were followed by slow decays”.

And the “Initial inflection time point” value (GRABeCB2.0 [1]; [6])?
Its value is ≤ 1 min.

Which EC50 (CB1R; read-out: EC50 at CB1R, ref 29;40;41) does the source give for CCCCC/C=C\C/C=C\C/C=C\C/C=C\CCCC(=O)OCC(O)CO (stereo not drawn) [1-AG, 1-arachidonoylglycerol] here?
Its EC50 is 1000 to 1900 nM.

And the “Antagonism … by SR1 100 nM” value (GRABeCB2.0 [1])?
The value was “strongly antagonized”.

What about the “Antagonism of agonist response by SR1 300 nM” value (from here on “Antagonism … by SR1 300 nM”) (GRABeCB2.0 [1]) of the same compound?
Its value is “strongly antagonized”.

And the EC50 (GRABeCB2.0 [1])?
Its EC50 is 1800 nM.

What about the “Effect of SR1 pre-treatment” value (GRABeCB2.0 [1]) of the same compound?
Its value is “reduced”.

What about the “Initial inflection time point” value (GRABeCB2.0 [1]) of the same compound?
Its value is ≤ 1 min.

And the “Kinetics of fluorescent signal increase” value (GRABeCB2.0 [1])?
Its value is “rapid increases in fluorescent signal that were followed by slow decays”.

For CCCCC/C=C\C/C=C\C/C=C\C/C=C\CCCC(=O)NCCO [AEA, arachidonoyl ethanolamine], which EC50 (CB1R; [7]) is on record?
The EC50 was 69 to 276 nM.

And the EC50 (CB1R; [4])?
The EC50 was 10 to 100 nM.

For CCCCCCCC/C=C\CCCCCCCC(=O)OC(CO)CO [2-OG, 2-oleoylglycerol], which “Antagonism … by SR1 100 nM” value (GRABeCB2.0 [1]) is on record?
Its value is “strongly antagonized”.

And the “Antagonism … by SR1 300 nM” value (GRABeCB2.0 [1])?
The value was “strongly antagonized”.

What about the EC50 (GRABeCB2.0 [1]) of the same compound?
Its EC50 is 1000 nM.

And the “Effect of SR1 pre-treatment” value (GRABeCB2.0 [1])?
The value was “reduced”.

And the “Kinetics of fluorescent signal increase” value (GRABeCB2.0 [1]; [5])?
Its value is “rapid increases in fluorescent signal that were followed by slow decays”.

And the “Initial inflection time point” value (GRABeCB2.0 [1]; [6])?
Its value is ≤ 1 min.

For CCCCCCC(C)(C)c1ccc([C@@H]2C[C@H](O)CC[C@H]2CCCO)c(O)c1 [CP], which “Antagonism response: t (decay following SR1 treatment)” value (GRABeCB2.0 [2]) is on record?
Its value is 24.3 s.

What about the “Decay of agonist response antagonized by SR1” value (GRABeCB2.0 [2]) of the same compound?
The value was 24 s.

What about the “Initial response: slope” value (GRABeCB2.0 [2]) of the same compound?
Its value is 4.5 × 10^−2 DF/F0/sec.

What about the “Maximal response: peak” value (GRABeCB2.0 [2]) of the same compound?
The value was 1.7 DF/F0.

And the “Antagonism … by SR1 100 nM” value (GRABeCB2.0 [1])?
Its value is “partial antagonized”.

What about the “Antagonism … by SR1 300 nM” value (GRABeCB2.0 [1]) of the same compound?
Its value is “more than 80%”.

And the “Effect of SR1 pre-treatment” value (GRABeCB2.0 [1])?
Its value is “significantly reduced”.

What about the “Initial inflection time point” value (GRABeCB2.0 [1]) of the same compound?
Its value is ≤ 1.33 min.

And the “Kinetics of fluorescent signal increase” value (GRABeCB2.0 [1])?
Its value is “progressive increases in fluorescent signal that did not reach peak response within 5 min”.

What about the “Maximal GRABeCB2.0 response as percent of the 2-AG response” value (GRABeCB2.0 [1]) of the same compound?
The value was 71%.

For OCC(O)CO [glycerol], which “Effect on GRABeCB2.0 fluorescent signal” value (GRABeCB2.0 [1]) is on record?
Its value is “did not influence”.
